From ChEMBL document CHEMBL2311284, “A novel series of N-(azetidin-3-yl)-2-(heteroarylamino)acetamide CCR2 antagonists” (Bioorg Med Chem Lett, 2013)

Assays:
[1] = Oral bioavailability in rat at 10 mg/kg; assay type: ADME, organism-based; conditions: in vivo
[2] = AUClast in rat at 2 mg/kg, iv and 10 mg/kg, po; conditions: plasma
[3] = Clearance in rat at 2 mg/kg, iv and 10 mg/kg, po; conditions: in vivo
[4] = Volume of distribution at steady state in rat at 2 mg/kg, iv and 10 mg/kg, po; conditions: in vivo, read-out: Vdss

bioavailability [1] [%] | AUC(0-t) [2] [ng·h/mL] | clearance [3] [mL/min/kg] | Vd [4] [L/kg] | Compound
0.5 | 6 | 148 | 13 | N#Cc1cc(NCC(=O)NC2CN([C@H]3CC[C@@](O)(c4cncs4)CC3)C2)c2cc(C(F)(F)F)ccc2n1
0.3 | 10.6 | 89 | 8.5 | O=C(CNc1ncnc2ccc(C(F)(F)F)cc12)NC1CN([C@H]2CC[C@@](O)(c3cncs3)CC2)C1
